Laboratory results reported in PMC8041284, “Tunable Methacrylamides for Covalent Ligand Directed Release Chemistry” (Journal of the American Chemical Society, 2021).
Read-outs that look alike come from different tables or passages of the source.

Target: BTK (Homo sapiens, UniProt Q06187)
Assay: biochemical
[1] = read-out: BTK inhibition (%), 0.75 uM BTK, […] probe 3l, 15 min preincubation

Chain of BTK (Q06187 402-655 limits assumed): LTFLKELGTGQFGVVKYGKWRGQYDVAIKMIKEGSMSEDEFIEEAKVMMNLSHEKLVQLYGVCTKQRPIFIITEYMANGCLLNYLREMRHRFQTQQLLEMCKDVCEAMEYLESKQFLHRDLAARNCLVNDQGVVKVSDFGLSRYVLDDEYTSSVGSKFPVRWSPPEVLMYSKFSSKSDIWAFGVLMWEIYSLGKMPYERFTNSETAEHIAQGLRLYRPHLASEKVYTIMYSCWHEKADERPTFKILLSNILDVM

Row | Structure (SMILES) | inhibition at 10 µM [1] [%] | inhibition at 10 µM (read-out: BTK inhibition (%)) [%]
1 | COc1ccccc1 [PCM-0216198] | -14.7 | 
2 | C=CS(=O)(=O)NC1CCN(C(=O)CNc2cc(I)c(Cl)cc2OC)CC1 [PCM-0215340] | 6.2 | 
3 | COc1c(O)c(C)cc2c1C(=O)c1c(O)cccc1C2=O [PCM-0216457] | 64.1 | 
4 | CC1(C)CCC(CN2CCN(c3ccc(C(=O)NS(=O)(=O)c4ccc(NCC5CCOCC5)c([N+](=O)[O-])c4)c(Oc4cnc5[nH]ccc5c4)c3)CC2)=C(c2ccc(Cl)cc2)C1 [PCM-0095632] | -5.4 | 
5 | CCN1C[C@]2(OC(=O)c3ccccc3NC(C)=O)CC[C@H](OC)[C@@]34[C@@H]2C[C@@H]([C@@H]13)[C@@]1(O)C[C@H](OC)[C@H]2C[C@@H]4[C@]1(O)[C@H]2OC [PCM-0094835] |  | 21
6 | COC(=O)C1=CO[C@@H](O)[C@@H]2C(CO)=CC[C@H]12 [PCM-0065168] | -1.6 | 
7 | CCC(CC)n1ccc2c(C(=O)NCc3c(C)cc(C)[nH]c3=O)cc(C#N)cc21 [PCM-0215402] | 1.5 | 
8 | C[N+]1(C)CCCC(OC(=O)C(O)(c2ccccc2)c2ccccc2)C1 (centres unmarked) [PCM-0215256] | -7.8 | 
9 | CC(COc1ccccc1)N(CCCl)Cc1ccccc1 (centres unmarked) [PCM-0086553] | 17.1 | 
10 | CS(=O)(=O)Nc1cc2occ(NC=O)c(=O)c2cc1Oc1ccccc1 [PCM-0216251] | 6.2 | 
11 | N#Cc1cccc(-c2c[nH]c3ncnc(N4CCOCC4)c23)c1 [PCM-0215613] | -8.3 | 
12 | C[C@]12C[C@@H](O)[C@@H]3C[C@@]1(O[C@@H]1O[C@H](CO)[C@@H](O)[C@H](O)[C@H]1O)[C@]3(COC(=O)c1ccccc1)C(=O)O2 [PCM-0216349] | -12.4 | 
13 | O=C(O)C1=CO[C@@H](O[C@@H]2O[C@H](CO)[C@@H](O)[C@H](O)[C@H]2O)[C@H]2[C@@H]1C=C[C@]2(O)CO [PCM-0216181] | -6.9 | 
14 | CC(C)N(CCCNC(=O)Nc1ccc(C(C)(C)C)cc1)C[C@H]1O[C@@H](n2ccc3c(N)ncnc32)[C@H](O)[C@@H]1O [PCM-0215195] | -18.5 | 
15 | NCC(CC(=O)O)c1ccccc1 (centres unmarked) [PCM-0215126] |  | -9.3
16 | Cc1[nH]c(/C=C2\C(=O)Nc3ccc(S(=O)(=O)Cc4c(Cl)cccc4Cl)cc32)c(C)c1C(=O)N1CCC[C@@H]1CN1CCCC1 [PCM-0095018] | 35.2 | 
17 | NC(=O)C(c1ccccc1)(c1ccccc1)[C@@H]1CCN(CCc2ccc3c(c2)CCO3)C1 [PCM-0086175] | 4.7 | 
18 | Cc1ccc(-c2n[nH]c3c2C(c2cccc(O)c2)N(c2ccc(C(=O)O)cc2)C3=O)cc1 (centres unmarked) [PCM-0216247] | 41.7 | 
19 | FC(F)(F)c1ccc(/C=C/c2nc(COc3ccc(CCCCn4ccnn4)cc3)co2)cc1 [PCM-0095252] | 13.1 | 
20 | O=C(O)P(=O)(O)O [PCM-0090233] | 1.6 | 
21 | C[C@@H]1CC[C@H]2[C@@H](C)C(O)O[C@@H]3O[C@@]4(C)CC[C@@H]1[C@]32OO4 (some centres unmarked) [PCM-0214674] | -20.2 | 
22 | O=C1C(=Cc2cccnc2)C(=O)c2ccccc21 [PCM-0216080] | 20.8 | 
23 | CN1C(C(=O)Nc2ccccn2)=C(O)c2ccccc2S1(=O)=O [PCM-0064770] | 9 | 
24 | Cc1cn([C@H]2C[C@H](N=[N+]=[N-])[C@@H](CO)O2)c(=O)[nH]c1=O [PCM-0085965] | -3.1 | 
25 | O=Cc1ccc(O[C@@H]2O[C@H](CO)[C@@H](O)[C@@H](O)[C@H]2O)cc1 [PCM-0215018] | 7 | 

Row | Structure (SMILES) | inhibition at 10 µM [1] [%] | inhibition at 10 µM (read-out: BTK inhibition (%)) [%]
26 | C=C(C)[C@@H]1CC[C@]2(C(=O)O[C@@H]3O[C@H](CO[C@@H]4O[C@H](CO)[C@@H](O[C@@H]5O[C@@H](C)[C@H](O)[C@@H](O)[C@H]5O)[C@H](O)[C@H]4O)[C@@H](O)[C@H](O)[C@H]3O)CC[C@]3(C)[C@H](CC[C@@H]4[C@@]5(C)CC[C@H](O[C@@H]6OC[C@H](O)[C@H](O)[C@H]6O[C@@H]6O[C@@H](C)[C@H](O)[C@@H](O)[C@H]6O)[C@@](C)(CO)[C@@H]5CC[C@]43C)[C@@H]12 [PCM-0216377] | -42.6 | 
27 | CCCCNc1ncc2c(-c3ccc(CN4CCN(C)CC4)cc3)cn(C3CCC(O)CC3)c2n1 (centres unmarked) [PCM-0215532] | 55.9 | 
28 | N[C@@H]1CN(c2c(F)cc3c(=O)c(C(=O)O)cn([C@@H]4C[C@@H]4F)c3c2Cl)CC12CC2 [PCM-0095203] | -6.8 | 
29 | Cc1cccc(CN2CCN(C(c3ccccc3)c3ccc(Cl)cc3)CC2)c1 (centres unmarked) [PCM-0086087] | 67.2 | 
30 | C/C=C1\C(=O)C[C@H]2[C@@H]3CCC4=CC(=O)CC[C@]4(C)[C@H]3CC[C@]12C [PCM-0216120] | -1.6 | 
31 | CC(=O)O[C@@H]1C[C@H](C)CC[C@H]1C(C)C [PCM-0216217] | 13.1 | 
32 | CC(C)C(Br)C(=O)NC(N)=O (centres unmarked) [PCM-0216023] |  | 12.4
33 | COc1cc2c3c(c1OC)-c1ccccc1C[C@H]3N(C)CC2 [PCM-0215922] | -12.8 | 
34 | COc1cc2ncc(-c3ccccc3)nc2cc1OC [PCM-0095612] | -13.8 | 
35 | O=C(O)Cc1cccc(OCCCN(Cc2cccc(C(F)(F)F)c2Cl)CC(c2ccccc2)c2ccccc2)c1 [PCM-0095493] | 23.4 | 
36 | O=C(O)[C@H]1CSC(c2nc3ccc(O)cc3s2)=N1 [PCM-0215581] | -16.2 | 
37 | NC[C@@](O)(c1ccc(Cl)cc1)c1ccc(-c2cn[nH]c2)cc1 [PCM-0215408] | -10.3 | 
38 | N#Cc1c(NC(=O)c2cccc3ccccc23)sc2c1CCCC2 [PCM-0095805] | 16.6 | 
39 | O=C(/C=C/c1ccc(O)c(O)c1)c1ccc(O)cc1O [PCM-0095622] | 55.2 | 
40 | CC(C)(C)C(=O)Oc1ccc(S(=O)(=O)Nc2ccccc2C(=O)NCC(=O)O)cc1 [PCM-0064760] | 11.7 | 
41 | C=CC(=O)Nc1cc(Nc2nccc(-c3c[nH]c4ccccc34)n2)c(OC)cc1N(C)CCN(C)C [PCM-0215489] | 91.7 | 
42 | C=CC(=O)Nc1cccc(Oc2nc(Nc3ccc(N4CCN(C)CC4)cc3)nc3ccsc23)c1 [PCM-0215661] | 105 | 
43 | CCN(CCCc1ccccc1)CCCc1ccccc1 [PCM-0085793] | -8.6 | 
44 | O=C(CCCCCCC(=O)Nc1ccccc1)NO [PCM-0086223] | -9 | 
45 | Cn1sc(=O)n(Cc2ccccc2)c1=O [PCM-0095428] | 4.8 | 
46 | C=CCc1cc(OC)c(O)c(C(=O)NCCO)c1 [PCM-0095214] | -16.3 | 
47 | CC(=O)Oc1cc(C(F)(F)F)ccc1C(=O)O [PCM-0065558] | -8.6 | 
48 | O=C(NOCC(O)CO)c1cc(Br)c(F)c(F)c1Nc1ccc(I)cc1F (centres unmarked) [PCM-0095128] | -19.3 | 
49 | O=C(O)C1=C(CSc2nnnn2CS(=O)(=O)O)CS[C@@H]2[C@H](NC(=O)[C@H](O)c3ccccc3)C(=O)N12 [PCM-0214888] | 3.9 | 
50 | C=C(C)[C@@H]1CC[C@]2(C)CC[C@]3(C)[C@H](CC[C@@H]4[C@@]5(C)CC[C@H](O)C(C)(C)[C@@H]5CC[C@]43C)[C@@H]12 [PCM-0215902] | -9.4 | 

Row | Structure (SMILES) | inhibition at 10 µM [1] [%] | inhibition at 10 µM (read-out: BTK inhibition (%)) [%]
51 | C[C@@H](O)[C@H]1C(=O)N2C(C(=O)O)=C(S[C@@H]3CN[C@H](C(=O)Nc4cccc(C(=O)O)c4)C3)[C@H](C)[C@H]12 [PCM-0216643] | 0.8 | 
52 | CN(C)[C@@H](CCOc1cccc2ccccc12)c1ccccc1 [PCM-0095178] | 6.2 | 
53 | Cc1cc2c(C(=O)NC[C@H](C)c3ccccc3)c(O)c(O)cc2c(O)c1-c1c(C)cc2c(C(=O)NC[C@H](C)c3ccccc3)c(O)c(O)cc2c1O [PCM-0215358] | 113 | 
54 | CC[C@H]1OC(=O)[C@H](C)[C@@H](O[C@H]2C[C@@](C)(OC)[C@@H](O)[C@H](C)O2)[C@H](C)[C@@H](O[C@@H]2O[C@H](C)C[C@H](N(C)C)[C@H]2O)[C@](C)(O)C[C@@H](C)C(=O)[C@H](C)[C@@H](O)[C@]1(C)O [PCM-0216070] | 10 | 
55 | Cc1ccc(-c2csc(NC(=O)c3ccccc3)n2)c(C)c1 [PCM-0215320] | 60.2 | 
56 | C[C@]12CCC(=O)C=C1CC[C@@H]1[C@@H]2[C@@H](O)C[C@@]2(C)[C@H]1CC[C@]2(O)C(=O)CO [PCM-0214647] | 12.4 | 
57 | CCCCCCCCN=c1ccn(CCCCCCCCCCn2ccc(=NCCCCCCCC)cc2)cc1 [PCM-0215117] | -64.1 | 
58 | O=C(Nc1cccc(Cl)c1)Nc1ncc(CCNc2ncnc3ccsc23)s1 [PCM-0094983] | 73.1 | 
59 | CNCCN(C)Cc1cn[nH]c1-c1ccc(OC2CC(OCCC3CCOCC3)C2)cc1 (centres unmarked) [PCM-0215762] | 11.6 | 
60 | O=C(O)CCc1ccc(O)cc1 [PCM-0215016] | -17.9 | 
61 | CN1CCc2nc(C(=O)N[C@@H]3C[C@@H](C(=O)N(C)C)CC[C@@H]3NC(=O)C(=O)Nc3ccc(Cl)cn3)sc2C1 [PCM-0216277] | -4.6 | 
62 | COc1cc(C(=O)O)ccc1O [PCM-0216103] | 3.1 | 
63 | O=C(CCCCc1ccc2c(c1)OCO2)N1CCCCC1 [PCM-0216131] | -17.8 | 
64 | CCC(=O)O[C@]1(C(=O)CCl)[C@@H](C)C[C@H]2[C@@H]3CCC4=CC(=O)C=C[C@]4(C)[C@@]3(F)[C@@H](O)C[C@@]21C [PCM-0086533] | 3.4 | 
65 | CC(C)CCn1c(CN2CCN(C(=O)C3CC3)CC2)nc2c1c(=O)n(C)c(=O)n2C [PCM-0215566] | -13.9 | 
66 | Cc1cc(=O)oc2cc(O)ccc12 [PCM-0011565] | -2.3 | 
67 | CCN(CC)CCCCNc1ncc2cc(-c3cc(OC)cc(OC)c3)c(NC(=O)NC(C)(C)C)nc2n1 [PCM-0095037] | -9 | 
68 | N=c1ccn2c(n1)O[C@H]1[C@H](O)[C@@H](CO)O[C@H]12 [PCM-0094879] | 6.2 | 
69 | CNC(=O)c1cc(COc2nnc(Nc3ccc(Cl)cc3)c3ccoc23)ccn1 [PCM-0095270] | 15.2 | 
70 | C/C(=C\C(=O)Nc1ccccc1C(=O)O)c1ccc2ccccc2c1 [PCM-0095068] | -11 | 
71 | CC(C)(C)c1cc(O)c(C(C)(C)C)cc1O [PCM-0214931] | 26.5 | 
72 | c1ccc(-c2[nH]ncc2-c2ccnc3ccccc23)nc1 [PCM-0095402] | 14.5 | 
73 | CC1=C[C@@H]2C(=O)[C@]3(C=C(C)[C@H](O)[C@@]3(O)[C@@H]1O)[C@H](C)C[C@@H]1[C@H]2C1(C)C [PCM-0216603] |  | 3.9
74 | Nc1cc(N)c(N)cc1N [PCM-0216082] | 31.7 | 
